From patent EP4806898A1, “HETEROARYL DERIVATIVE COMPOUND AND USE THEREOF” (Voronoi Inc., priority 2023, dated 2025)
Where two headings read alike, the source gives them in different places.

Legend:
UWB1.289 cells = experiment: Cell proliferation inhibitory activity in BRCA1/2-mutant or HRD-positive cells (Cell Titer-Glo); format: cell-based; conditions: read-out: GI50 UWB1.289 BRCA1 mut
Summary of the method: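 GI50 from CellTiter-Glo luminescence after 144 h compound exposure at 37 °C. Cells seeded at 1,000 per well in MEBM/RPMI1640 mix 16–24 h beforehand; […] from 10 µM down to 1.5 nM final (3-fold steps).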

recombinant USP1 protein = biological target: T1, recombinant USP1 protein (Homo sapiens, UniProt O94782, DEL125-138/DEL229-408/DEL608-737); experiment: Binding affinity to recombinant USP1 protein by differential scanning fluorimetry; conditions: read-out: ΔTm (°C)
T1 sequence (O94782 with tags, fused parts or gaps DEL125-138/DEL229-408/DEL608-737): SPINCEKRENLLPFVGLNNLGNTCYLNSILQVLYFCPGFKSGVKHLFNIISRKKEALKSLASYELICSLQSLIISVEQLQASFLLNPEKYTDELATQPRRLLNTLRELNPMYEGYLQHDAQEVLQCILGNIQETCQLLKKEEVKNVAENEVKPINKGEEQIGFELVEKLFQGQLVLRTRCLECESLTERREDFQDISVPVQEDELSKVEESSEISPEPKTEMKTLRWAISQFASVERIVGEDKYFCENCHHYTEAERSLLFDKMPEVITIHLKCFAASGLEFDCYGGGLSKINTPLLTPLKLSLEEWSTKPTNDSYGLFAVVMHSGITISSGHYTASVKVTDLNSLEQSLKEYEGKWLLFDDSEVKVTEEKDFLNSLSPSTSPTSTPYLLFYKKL
Summary of the method: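 Thermal shift readout: ΔTm is the compound-well melting temperature less the DMSO-well value, measured by real-time PCR. Compounds tested at 100 µM final against 0.03 mg/mL truncated USP1 (Δ1-66, Δ125-138, Δ229-408, Δ608-737) in pH 8.0 Tris buffer containing 150 mM NaCl, 2% glycerol, 1 mM DTT.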

[1] = UWB1289, UWB1.289 cells, 144 hours after compound treatment, Cell Titer-Glo, 1.5 nM to 10 µM
[2] = compound 100 µM, 0.03 mg/mL USP1 (Δ1-66, Δ125-138, Δ229-408, Δ608-737), Tm with compound minus Tm with DMSO

ΔTm at 100 µM (recombinant USP1 protein; [2]) | SMILES | GI50 (UWB1.289 cells; [1]) | GI50 (UWB1.289 cells; UWB1289, 144 h) | ΔTm at 100 µM (recombinant USP1 protein)
> 5 °C | COc1ncnc(C2CC2)c1-c1ncc2cc(C(=O)NCCN(C)C)n(Cc3ccc(-c4nc(C(F)(F)F)cn4C(C)C)cc3)c2n1 [Example 12, 2-(4-cyclopropyl-6-methoxypyrimidin-5-yl)-N-(2-(dimethylamino)ethyl)-7-(4-(1-isopropyl-4-(trifluoromethyl)-1H-imidazol-2-yl)benzyl)-7H-pyrrolo[2,3-d]pyrimidine-6-carboxamide] | 100 to 500 nM | – | –
> 5 °C | COc1ncnc(C2CC2)c1-c1ncc2cc(C(=O)NCCCN(C)C)n(Cc3ccc(-c4nc(C(F)(F)F)cn4C(C)C)cc3)c2n1 [Example 33] | < 100 nM | – | –
> 5 °C | COc1ncnc(C2CC2)c1-c1ncc2cc(C(=O)N(C)CSC)n(Cc3ccc(-c4nc(C(F)(F)F)cn4C)cc3)c2n1 [Example 210, 2-(4-cyclopropyl-6-methoxypyrimidin-5-yl)-N-methyl-7-(4-(1-methyl-4-(trifluoromethyl)-1H-imidazol-2-yl)benzyl)-N-((methylthio)methyl)-7H-pyrrolo[2,3-d]pyrimidine-6-carboxamide] | < 100 nM | – | –
> 5 °C | C=CCCNC(=O)c1cc2cnc(-c3c(OC)ncnc3C3CC3)nc2n1Cc1ccc(-c2nc(C(F)(F)F)cn2C(C)C)cc1 [Example 64, N-(but-3-en-1-yl)-2-(4-cyclopropyl-6-methoxypyrimidin-5-yl)-7-(4-(1-isopropyl-4-(trifluoromethyl)-1H-imidazol-2-yl)benzyl)-7H-pyrrolo[2,3-d]pyrimidine-6-carboxamide] | 100 to 500 nM | – | –
> 5 °C | COc1ncnc(C2CC2)c1-c1ncc2cc(C(=O)N[C@H]3CN(C4COC4)C[C@H]3F)n(Cc3ccc(-c4nc(C(F)(F)F)cn4C)cc3)c2n1 [Example 212, 2-(4-cyclopropyl-6-methoxypyrimidin-5-yl)-N-((3S,4R)-4-fluoro-1-(oxetan-3-yl)pyrrolidin-3-yl)-7-(4-(1-methyl-4-(trifluoromethyl)-1H-imidazol-2-yl)benzyl)-7H-pyrrolo [2,3-d]pyrimidine-6-carboxamide] | < 100 nM | – | –
> 5 °C | CCN(CC)C(=O)c1cc2cnc(-c3c(OC)ncnc3C3CC3)nc2n1Cc1ccc(-c2nc(C(F)(F)F)cn2C(C)C)cc1 [Example 42, 2-(4-cyclopropyl-6-methoxypyrimidin-5-yl)-N,N-diethyl-7-(4-(1-isopropyl-4-(trifluoromethyl)-1H-imidazol-2-yl)benzyl)-7H-pyrrolo[2,3-d]pyrimidine-6-carboxamide] | 100 to 500 nM | – | –
> 5 °C | COc1ncnc(C2CC2)c1-c1ncc2cc(C(=O)N[C@@H]3CN(C)C[C@@H]3F)n(Cc3ccc(-c4nc(C(F)(F)F)cn4C)cc3)c2n1 [Example 217, 2-(4-cyclopropyl-6-methoxypyrimidin-5-yl)-N-((3R,4S)-4-fluoro-1-methylpyrrolidin-3-yl)-7-(4-(1-methyl-4-(trifluoromethyl)-1H-imidazol-2-yl)benzyl) -7H-pyrrolo[2,3-d]pyrimidine-6-carboxamide] | < 100 nM | – | –
> 5 °C | COc1ncnc(C2CC2)c1-c1ncc2cc(C(=O)N3CC[C@H](O)C3)n(Cc3ccc(-c4nc(C(F)(F)F)cn4C(C)C)cc3)c2n1 [Example 117, (S)-(2-(4-cyclopropyl-6-methoxypyrimidin-5-yl)-7-(4-(1-isopropyl-4-(trifluoromethyl)-1H-imidazol-2-yl)benzyl)-7H-pyrrolo[2,3-d]pyrimidin-6-yl) (3-hydroxypyrrolidin-1-yl)methanone] | < 100 nM | – | –
> 5 °C | COc1ncnc(C2CC2)c1-c1ncc2cc(C(=O)N[C@H]3CCN(C)C[C@@H]3F)n(Cc3ccc(-c4nc(C(F)(F)F)cn4C)cc3)c2n1 [Example 167, 2-(4-cyclopropyl-6-methoxypyrimidin-5-yl)-N-((3S,4S)-3-fluoro-1-methylpiperidin-4-yl)-7-(4-(1-methyl-4-(trifluoromethyl)-1H-imidazol-2-yl)benzyl)-7H-pyrrolo[2,3-d]pyrimidine-6-carboxamide] | < 100 nM | – | –
> 5 °C | [2H]C([2H])([2H])Oc1ncnc(C2CC2)c1-c1ncc2cc(C(=O)NC)n(Cc3ccc(-c4nc(C(F)(F)F)cn4C(C)C)cc3)c2n1 [Example 3, 2-(4-cyclopropyl-6-(methoxy-d3)pyrimidin-5-yl)-7-(4-(1-isopropyl-4-(trifluoromethyl)-1H-imidazol-2-yl)benzyl)-N-methyl-7H-pyrrolo[2,3-d]pyrimidine-6-carboxamide] | < 100 nM | – | –
> 5 °C | COc1ncnc(C2CC2)c1-c1ncc2cc(C(=O)NC3CNC3)n(Cc3ccc(-c4nc(C(F)(F)F)cn4C(C)C)cc3)c2n1 [Example 36, N-(azetidin-3-yl)-2-(4-cyclopropyl-6-methoxypyrimidin-5-yl)-7-(4-(1-isopropyl-4-(trifluoromethyl)-1H-imidazol-2-yl)benzyl)-7H-pyrrolo[2,3-d]pyrimidine-6-carboxamide] | 100 to 500 nM | – | –
– | COc1ncnc(C2CC2)c1-c1ncc2cc(C(=O)N(C)CC3COC3)n(Cc3ccc(-c4nc(C(F)(F)F)cn4C(C)C)cc3)c2n1 [Example 139, 2-(4-cyclopropyl-6-methoxypyrimidin-5-yl)-7-(4-(1-isopropyl-4-(trifluoromethyl)-1H-imidazol-2-yl)benzyl)-N-methyl-N-(oxetan-3-ylmethyl)-7H-pyrrolo[2,3-d]pyrimidine-6-carboxamide] | – | < 100 nM | > 5 °C
> 5 °C | CNC(=O)c1cc2cnc(-c3ccccc3C(C)C)nc2n1Cc1ccc(-c2nc(C(F)(F)F)cn2C(C)C)cc1 [Example 2, 7-(4-(1-isopropyl-4-(trifluoromethyl)-1H-imidazol-2-yl)benzyl)-2-(2-isopropylphenyl)-N-methyl-7H-pyrrolo[2,3-d]pyrimidine-6-carboxamide] | < 100 nM | – | –
> 5 °C | COc1ncnc(C2CC2)c1-c1ncc2cc(C(=O)Nc3nccs3)n(Cc3ccc(-c4nc(C(F)(F)F)cn4C(C)C)cc3)c2n1 [Example 31, 2-(4-cyclopropyl-6-methoxypyrimidin-5-yl)-7-(4-(1-isopropyl-4-(trifluoromethyl)-1H-imidazol-2-yl)benzyl)-N-(thiazol-2-yl)-7H-pyrrolo[2,3-d]pyrimidine-6-carboxamide] | 100 to 500 nM | – | –
> 5 °C | COc1ncnc(C2CC2)c1-c1ncc2cc(C(=O)NCCC3CC(F)(F)C3)n(Cc3ccc(-c4nc(C(F)(F)F)cn4C(C)C)cc3)c2n1 [Example 90, 2-(4-cyclopropyl-6-methoxypyrimidin-5-yl)-N-(2-(3,3-difluorocyclobutyl)ethyl)-7-(4-(1-isopropyl-4-(trifluoromethyl)-1H-imidazol-2-yl)benzyl)-7H-pyrrolo[2,3-d]pyrimidine-6-carboxamide] | < 100 nM | – | –
> 5 °C | CN[C@@H]1CCN(C(=O)c2cc3cnc(-c4c(OC)ncnc4C4CC4)nc3n2Cc2ccc(-c3nc(C(F)(F)F)cn3C(C)C)cc2)C1 [Example 109, (R) - (2-(4-cyclopropyl-6-methoxypyrimid in-5-yl)-7-(4-(1-isopropyl-4-(trifluoromethyl)-1H-imidazol-2-yl)benzyl)-7H-pyrrolo[2,3-d]pyrimidin-6-yl) (3-(methylamino)pyrrolidin-1-yl)methanone] | < 100 nM | – | –
